Assay results from patent US11712438B2, “Phenyl derivatives as PGE2 receptor modulators” (IDORSIA PHARMACEUTICALS LTD, priority 2017, dated 2023).

Tests used:
[1] = biological target: PTGER2 (EP2) (Homo sapiens, UniProt P43116); test: cell-based
[2] = biological target: PTRGER4 (EP4) (Homo sapiens, UniProt P35408); test: cell-based;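 further: assay plate preincubated 15 min at 37 °C, after which PGE2 was added at 20 nM final and incubation continued 120 min at 37 °C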
PTRGER4 (EP4), sequence (P35408 whole entry): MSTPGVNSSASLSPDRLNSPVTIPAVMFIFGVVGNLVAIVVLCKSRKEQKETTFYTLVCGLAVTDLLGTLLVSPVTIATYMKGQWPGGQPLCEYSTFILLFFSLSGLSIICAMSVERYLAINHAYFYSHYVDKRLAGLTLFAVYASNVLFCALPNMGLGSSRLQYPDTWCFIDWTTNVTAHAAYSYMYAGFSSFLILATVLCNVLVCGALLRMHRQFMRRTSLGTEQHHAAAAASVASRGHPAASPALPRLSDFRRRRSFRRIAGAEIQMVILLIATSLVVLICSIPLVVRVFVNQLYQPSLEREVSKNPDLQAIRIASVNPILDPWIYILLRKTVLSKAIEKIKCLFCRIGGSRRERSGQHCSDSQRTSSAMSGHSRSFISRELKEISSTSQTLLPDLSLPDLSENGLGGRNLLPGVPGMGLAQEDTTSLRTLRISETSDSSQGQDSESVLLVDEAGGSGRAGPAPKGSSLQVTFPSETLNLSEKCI

PTGER2 (EP2), sequence (P43116 whole entry): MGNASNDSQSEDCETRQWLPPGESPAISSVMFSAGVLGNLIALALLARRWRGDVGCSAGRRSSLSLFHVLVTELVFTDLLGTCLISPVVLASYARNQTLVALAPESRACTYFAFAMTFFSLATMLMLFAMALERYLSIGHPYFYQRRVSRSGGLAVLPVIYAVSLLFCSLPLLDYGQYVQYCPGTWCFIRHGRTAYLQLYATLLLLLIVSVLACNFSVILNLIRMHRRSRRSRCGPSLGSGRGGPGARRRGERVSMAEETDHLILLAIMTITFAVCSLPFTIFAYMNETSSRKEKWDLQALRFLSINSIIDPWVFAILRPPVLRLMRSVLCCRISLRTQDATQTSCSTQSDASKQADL

SMILES | IC50 [1] [nM] | IC50 [2] [nM]
Fc1cc(Br)cc(F)c1CCNc1cc(-c2ccc3cc[nH]c3c2)ncn1 [Example 170, [2-(4-Bromo-2,6-difluoro-phenyl)-ethyl]-[6-(1H-indol-6yl)-pyrimidin-4-yl]amine] | 424 | 746
COc1cc(F)c(CCNc2cc(-c3ccc(C(=O)O)c(SC)c3)ncn2)c(F)c1 [Example 229, 4-{6-[2-(2,6-Difluoro-4-methoxy-phenyl)-ethylamino]-pyrimidin-4-yl}-2-methylsulfanyl-benzoic acid] | 81 | 273
CCOc1cc(-c2cc(NCCc3cc(Cl)c(C(F)(F)F)cc3OC)ncn2)ccc1C(=O)O [Example 195, 4-{6-[2-(5-Chloro-2-methoxy-4-trifluoromethyl-phenyl)-ethylamino]-pyrimidin-4-yl}-2-ethoxy-benzoic acid] | 837 | 269
CCCc1cc(-c2cc(NCCc3c(F)cc(Br)cc3F)ncn2)ccc1C1(C(=O)O)CC1 [Example 172, 1-(4-{6-[2-(4-Bromo-2,6-difluoro-phenyl)-ethylamino]-pyrimidin-4-yl}-2-propyl-phenyl)-cyclopropanecarboxylic acid] | 440 | 401
CCOc1cc(-c2cc(NCCc3ccc(C(F)(F)F)cc3OC)ncn2)ccc1C(=O)O [Example 205, 2-Ethoxy-4-{6-[2-(2-methoxy-4-trifluoromethyl-phenyl)-ethylamino]-pyrimidin-4-yl}-benzoic acid] | 966 | 681
CCCc1cc(-c2cc(NCCc3ccc(C(F)(F)F)cc3OC)ncn2)ccc1C(=O)O [Example 207, 4-{6-[2-(2-Methoxy-4-trifluoromethyl-phenyl)-ethylamino]-pyrimidin-4-yl}-2-propyl-benzoic acid] | 721 | 491
CCOc1cc(-c2cc(NCCc3c(F)cc(OC)cc3F)ncn2)ccc1C(=O)O [Example 228, 4-{6-[2-(2,6-Difluoro-4-methoxy-phenyl)-ethylamino]-pyrimidin-4-yl}-2-ethoxy-benzoic acid] | 502 | 777
CCCc1cc(-c2cc(NCCc3ccc(OC(F)F)cc3OC)ncn2)ccc1C(=O)O [Example 222, 4-{6-[2-(4-Difluoromethoxy-2-methoxy-phenyl)-ethylamino]-pyrimidin-4-yl}-2-propyl-benzoic acid] | 231 | 286
CCCc1cc(-c2cc(NCCc3cc(C)c(C)cc3OC)ncn2)ccc1CC(=O)O [Example 192, (4-{6-[2-(2-Methoxy-4,5-dimethyl-phenyl)-ethylamino]-pyrimidin-4-yl}-2-propyl-phenyl)-acetic acid] | 380 | 193
CCCOc1cc(-c2cc(NCCc3cc(C)c(C)cc3OC)ncn2)ccc1CC(=O)O [Example 194, (4-{6-[2-(2-Methoxy-4,5-dimethyl-phenyl)-ethylamino]-pyrimidin-4-yl}-2-propoxy-phenyl)-acetic acid] | 548 | 207
CCOc1cc(-c2cc(NCCc3ccc(OC(F)F)cc3OC)ncn2)sc1C(=O)O [Example 224, 5-{6-[2-(4-Difluoromethoxy-2-methoxy-phenyl)-ethylamino]-pyrimidin-4-yl}-3-ethoxy-thiophene-2-carboxylic acid] | 37 | 23
COc1cc(OC(F)F)ccc1CCNc1cc(-c2ccc(C(=O)O)c(SC)c2)ncn1 [Example 221, 4-{6-[2-(4-Difluoromethoxy-2-methoxy-phenyl)-ethylamino]-pyrimidin-4-yl}-2-methylsulfanyl-benzoic acid] | 92 | 268
CCOc1cc(-c2cc(NCCc3cc(C)c(C(F)F)cc3OC)ncn2)ccc1C(=O)O [Example 199, 4-{6-[2-(4-Difluoromethyl-2-methoxy-5-methyl-phenyl)-ethylamino]-pyrimidin-4-yl}-2-ethoxy-benzoic acid] | 163 | 283
CCOc1c(CC(=O)O)ccc(-c2cc(NCCc3c(F)cc(Br)cc3F)ncn2)c1F [Example 175, (4-{6-[2-(4-Bromo-2,6-difluoro-phenyl)-ethylamino]-pyrimidin-4-yl}-2-ethoxy-3-fluoro-phenyl)-acetic acid] | 258 | 461
COc1ccc(SC)cc1CCNc1cc(-c2ccc(C(=O)O)c(OC3CCC3)c2)ncn1 [Example 173, 2-Cyclobutoxy-4-{6-[2-(2-methoxy-5-methylsulfanyl-phenyl)-ethylamino]pyrimidin-4-yl}-benzoic acid] | 107 | 519
CCOc1cc(-c2cc(NCCc3c(F)cc(C(F)(F)F)cc3OC)ncn2)ccc1C(=O)O [Example 226, 2-Ethoxy-4-{6-[2-(2-fluoro-6-methoxy-4-trifluoromethyl-phenyl)-ethylamino]-pyrimidin-4-yl}-benzoic acid] | 907 | 273
CCOc1cc(-c2cc(NCCc3c(C)cc(C)cc3OC)ncn2)ccc1CC(=O)O [Example 202, (2-Ethoxy-4-{6-[2-(2-methoxy-4,6-dimethyl-phenyl)-ethylamino]-pyrimidin-4-yl}-phenyl)-acetic acid] | 597 | 365
CCCc1cc(-c2cc(NCCc3cc(Cl)c(C(F)(F)F)cc3OC)ncn2)ccc1C(=O)O [Example 197, 4-{6-[2-(5-Chloro-2-methoxy-4-trifluoromethyl-phenyl)-ethylamino]-pyrimidin-4-yl}-2-propyl-benzoic acid] | 539 | 163

The remaining lines, values ahead:

IC50 [1] [nM] | IC50 [2] [nM] | SMILES
254 | 831 | CC(C)Oc1cc(-c2cc(NCCc3c(F)cc(Br)cc3F)ncn2)ccc1C(=O)O [Example 251, 4-{6-[2-(4-Bromo-2,6-difluoro-phenyl)-ethylamino]-pyrimidin-4-yl}-2-isopropoxy-benzoic acid]
222 | 398 | CCOc1cc(-c2cc(NCCc3c(F)cccc3F)ncn2)ccc1-c1noc(=O)[nH]1 [Example 233, 3-(4-(64(2,6-Difluorophenethypamino)pyrimidin-4-yl)-2-ethoxyphenyl)-[1,2,4]oxadiazol-5(4H)-one]
118 | 640 | CCOc1cc(-c2cc(NCCc3c(F)cc(Br)cc3F)ncn2)ccc1C(=O)NCCOC [Example 301, 4-{6-[2-(4-Bromo-2,6-difluoro-phenyl)-ethylamino]-pyrimidin-4-yl}-2-ethoxy-N-(2-methoxy-ethyl)-benzamide]
352 | 875 | Fc1cc(Br)cc(F)c1CCNc1cc(-c2ccc3nccn3c2)ncn1 [Example 309, [2-(4-Bromo-2,6-difluoro-phenyl)-ethyl]-(6-imidazo[1,2-a]pyridin-6-yl-pyrimidin-4-yl)-amine]
295 | 199 | CCCc1cc(-c2cc(NCCc3c(F)cc(Br)cc3F)ncn2)ccc1Cc1noc(=O)[nH]1 [Example 284, 3-(4-{6-[2-(4-Bromo-2,6-difluoro-phenyl)-ethylamino]-pyrimidin-4-yl}-2-propyl-benzyl)-[1,2,4]oxadiazol-5(4H)-one]
753 | 880 | Cc1cc(-c2cc(NCCc3c(F)cc(Br)cc3F)ncn2)ccc1CC(=O)O [Example 254, (4-{6-[2-(4-Bromo-2,6-difluoro-phenyl)-ethylamino]-pyrimidin-4-yl}-2-methyl-phenyl)-acetic acid]
70 | 183 | Fc1cc(Br)cc(F)c1CCNc1cc(-c2ccc3[nH]ncc3c2)ncn1 [Example 267, [2-(4-Bromo-2,6-difluoro-phenyl)-ethyl]-[6-(1H-indazol-5-yl)-pyrimidin-4-yl]amine]
242 | 452 | NC(=O)Nc1ccc(-c2cc(NCCc3c(F)cc(Br)cc3F)ncn2)cc1 [Example 265, (4-{6-[2-(4-Bromo-2,6-difluoro-phenyl)-ethylamino]-pyrimidin-4-yl}-phenyl)-urea]
372 | 465 | Cc1cc(-c2cc(NCCc3c(F)cc(Br)cc3F)ncn2)cc(Cl)c1CC(=O)O [Example 264, (4-{6-[2-(4-Bromo-2,6-difluoro-phenyl)-ethylamino]-pyrimidin-4-yl}-2-chloro-6-methyl-phenyl)-acetic acid]
21 | 236 | CCOc1cc(-c2cc(NCCc3c(F)cc(Br)cc3F)ncn2)ccc1C(N)=O [Example 297, 4-{6-[2-(4-Bromo-2,6-difluoro-phenyl)-ethylamino]-pyrimidin-4-yl}-2-ethoxy-benzamide]
121 | 565 | CCOc1cc(-c2cc(NCCc3c(F)cc(Br)cc3F)ncn2)ccc1C(=O)NCC(C)(C)O [Example 302, 4-{6-[2-(4-Bromo-2,6-difluoro-phenyl)-ethylamino]-pyrimidin-4-yl}-2-ethoxy-N-(2-hydroxy-2-methyl-propyl)-benzamide]
219 | 781 | CCCc1cc(-c2cc(NCCc3c(F)cc(Br)cc3F)ncn2)ccc1C(=O)NCCOC [Example 307, 4-{6-[2-(4-Bromo-2,6-difluoro-phenyl)-ethylamino]-pyrimidin-4-yl}-N-(2-methoxy-ethyl)-2-propyl-benzamide]
88 | 149 | CN1C(=O)NCc2ccc(-c3cc(NCCc4c(F)cc(Br)cc4F)ncn3)cc21 [Example 262, 7-{6-[2-(4-Bromo-2,6-difluoro-phenyl)-ethylamino]-pyrimidin-4-yl}-1-methyl-3,4-dihydro-1H-quinazolin-2-one]
191 | 170 | CCc1cc(-c2cc(NCCc3c(F)cc(Br)cc3F)ncn2)cc(Cl)c1CC(=O)O [Example 253, (4-{6-[2-(4-Bromo-2,6-difluoro-phenyl)-ethylamino]-pyrimidin-4-yl}-2-chloro-6-ethyl-phenyl)-acetic acid]
203 | 628 | CCCc1cc(-c2cc(NCCc3c(F)cc(Br)cc3F)ncn2)ccc1C(=O)NCC [Example 305, 4-{6-[2-(4-Bromo-2,6-difluoro-phenyl)-ethylamino]-pyrimidin-4-yl}-N-ethyl-2-propyl-benzamide]
204 | 755 | O=C(O)Cc1ccc(-c2cc(NCCc3c(F)cc(Br)cc3F)ncn2)cc1OC1CC1 [Example 260, (4-{6-[2-(4-Bromo-2,6-difluoro-phenyl)-ethylamino]-pyrimidin-4-yl}-2-cyclopropoxy-phenyl)-acetic acid]
